In brackets after ≈: the same amount, converted by molar mass.
Each compound was assayed on Plasmodium falciparum (assay: Antimalarial activity against multidrug-resistant Plasmodium falciparum K1 by [3H]hypoxanthine uptake).
Assay type: functional, organism-based

Compound | IC50 [µg/mL]
C[C@@H]1CC[C@H]2[C@@H](C)C(=O)O[C@@H]3O[C@@]4(C)CC[C@@H]1[C@]32OO4 [ARTEMISININ] | 0.001 (≈ 0.00354 µM)
COc1cccc2c1c(-c1c3c4c(cc5c(c4c4cccc(OC)c14)OCO5)CCN3)c1c3c(cc4c(c32)OCO4)CCN1 [BIDEBILINE C] | 5.4 (≈ 9.24 µM)
COc1ccc2c(-c3c4c5c(cc6c(c5c5cc(OC)ccc35)OCO6)CCN4)c3c4c(cc5c(c4c2c1)OCO5)CCN3 [BIDEBILINE D] | 4.1 (≈ 7.01 µM)
